Measurements from patent US20100331409A1, “Use of Methyl Cinnamate in the Inhibition of Candida Albicans Biofilms” (Barak Biotechnology Co., Ltd., priority 2009, published 2010).

Columns and labels:
Assay type in all cases: cell-based
Candida albicans [1] = assay: MIC assay against Candida albicans; conditions: 1×10^5 CFU/ml, 96-well plates, 37° C. for 16 hours
Protocol: (§1) A single colony of Candida albicans was selected from YPD plate, seeded in YPD liquid medium and then cultured at 30° C. and 100 rpm for 16 hours. The medium was diluted to 1×10^5 CFU/ml. The diluted medium was added to 96-well plates containing different concentrations of methyl cinnamate and essential oil of Zanthoxylum armatum (0.00625% to 1% for methyl cinnamate and 0.025% to 0.5% for essential oil) and cultured at 37° C. for 16 hours.

Candida albicans [2] = assay: MFC assay against Candida albicans; conditions: 1×10^5 CFU/ml, 96-well plates, 37° C. for 16 hours
Protocol: as §1

[3] = test system: biofilm of Candida albicans; assay: Inhibition of biofilm of Candida albicans on polystyrene (XTT and crystal violet); conditions: concentration ranging from 0.015% to 0.125%; added 4 hours after adhesion, cultured at 37° C. to 48 hours; XTT and CV
Protocol: A single colony of Candida albicans was selected from YPD plate (1% (w/v) yeast extract, 2% (w/v) peptone, 2% (w/v) dextrose and 1.5% (w/v) agar), seeded in YPD liquid medium (1% (w/v) yeast extract, 2% (w/v) peptone and 2% (w/v) dextrose) and then cultured at 30° C. and 100 rpm for 16 hours. The YPD medium was washed out and the amounts of the Candida albicans cells were counted using Hematocyte Counter. The cells were diluted with RPMI 1640 medium (Gibco, Invitroge, Calif., U.S.A.) to 5×10^5 cells/ml. 200 μL of 5×10^5 cells/ml medium were added to 96-well plate and placed at 37° C. for 1 hour so that the cells could adhere to the bottom of the plate. The non-adhered cells were washed out with phosphate buffer. The material of the 96-well plate was polystyrene, which is a common material for medical device such as syringe. Subsequently, RPMI 1640 medium was added to the plate and cultured at 37° C. […] The numbers of cells in the biofilm were determined by a colorimetric assay using XTT [2,3-Bis(2-methoxy-4-nitro-5-sulfo-phenyl)-2H-tetrazolium-5-carboxanilide] (Sigma, Mo., U.S.A.) and their biomass was determined by crystal violet to find out the mature development of biofilm (Ramage G et al., Inhibition of Candida albicans Biofilm Formation by Farnesol, A Quorum-Sensing Molecule. Appl Environ Microbiol 2002, 68: 5459-5463). […]

Q: `COC(=O)/C=C/c1ccccc1` [methyl cinnamate] was tested. Which MIC (Candida albicans [1]) did it give?
A: 0.1%

Q: And the MFC (Candida albicans [2])?
A: 0.8%

Q: And the biofilm inhibited [3]?
A: 10 to 60%
